The record followed here is patent US20260286370A1, “METHODS FOR RAPID AGROBACTERIUM-MEDIATED SUNFLOWER STABLE TRANSFORMATION” (SYNGENTA CROP PROTECTION AG, priority 2023, published 2026).

Assay type in all cases: in vivo, Helianthus annuus
The subject of experiment [1] is sunflower explants. Briefly: Resistant frequencies with different concentration of spectinomycin in selection medium (Protocol V2). Particulars: F75400. The method, then:
Transformed sunflower explants was transferred onto regeneration media by inserting cotyledon with meristem region into solid medium with a selection agent. Hypocotyl was left untouching the medium. The hypocotyl was covered with sterilized matrix and put the jar in 22° C., 16/8 h light/dark. The regeneration step lasted for 7-14 days. Specifically, after co-culture, the mature seeds were placed on regeneration medium as follows: cotyledon/meristem region was inserted into solid medium with a selection agent (100 mg/L spectinomycin), the hypocotyl was left upside (the whole seeds were upside down); the container was covered with sterilized matrix (soil mixture) and placed in growth chamber for inducing shooting and rooting simultaneously under short time selection (7-14 days).
Selection medium with spectinomycin 100-800 mg/L was tested. The resistant plantlets are generated with normal shoots and roots, further confirmed by visualizing GFP. […] (Experiment alias: SF-23-SP-24545; variety: F75400).

The subject of experiment [2] is sunflower explants. Briefly: Transformation frequency by selection system (aadA or ALS selectable marker). As to conditions: substance used as selection agent (aadA marker for spectinomycin, ALS marker for bensulfuron-methyl). The text has this: As the Examples indicate, multiple transgenic-shoot structures were induced from infected explant tissues. Then the explants were shortly selected on selection media with selection agent (7-14 days, Spectinomycin as selection agent) and transplanted into soil to allow shoot and root development under controlled conditions (in growth chamber). From multiple experiments, transgenic events were successfully generated with aadA or ALS as selectable markers (spectinomycin and bensulfuron-methyl as selection agents respectively). The transformation frequency (TF) is 8.2% for spectinomycin selection, and 3.6% for bensulfuron-methyl selection system.

The subject of experiment [3] is sunflower cotyledon explants. As to the kind of experiment: Shoot induction rate of cotyledon explants with different plant hormone (conventional process). As to conditions: conventional in vitro process. The method, then:
The most efficient regeneration and transformation system reported using cotyledon as explants was evaluated.

Experiment [4] concerns sunflower explants. Briefly: Transformation efficiency with different cytokinin in germination medium (Protocol V2). Particulars: variety F75400; for No. resistant shoot: hormone in germination medium: TDZ 4 mg/L (68 explants), BAP 5 mg/L (71 explants); for # of Resistant plants with GFP / Rate of resistant plants with GFP (%) / Resistant shoot rate: hormone in germination medium: TDZ 4 mg/L, BAP 5 mg/L. The text has this: Adding different cytokinin into germination medium can improve shoot induction rate and TF. The resistant plantlets were generated with normal shoots and roots, which was further confirmed by visualizing green fluorescent protein expression (GFP). (Experiment alias: SF-52-SP-24545, SF-66-SP-24545, SF-81-SP-24545; variety: F75400).

Experiment [5] relates to sunflower explants from 1-day imbibed seeds. Briefly: Transformation efficiency with different concentration of TDZ in infection medium (Protocol V1). As to conditions: for # of TaqMan Positive Events / TF: variety F75400, vector 24545. The method, then: Agrobacterium from storage at −80° C. were streaked to YP (Yeast Peptone) medium with 100 mg/L spectinomycin and 50 mg/L kanamycin at least 3 days before infection. They were re-streaked to a new YP medium plate with some concentrations of spectinomycin and kanamycin 1 day before infection. The Agrobacterium were then collected and re-suspended in infection liquid medium (containing MS basal salts and B5 vitamins, sucrose 20 g/L, glucose 10 g/L, MES, 4 g/L, zeatin riboside 2 mg/L, 3-10 mg/L TDZ, 80 mg/L acetosyringone (AS), 150 mg/L dithiothreitol (DTT), pH=5.5). The concentration of the Agrobacterium was adjusted until OD660=0.6.
One cotyledon of the split germinated seeds was removed with a scalpel to expose the shoot apex with its two primary leaves. The two primary leaves were completely removed to expose the apical meristem and the apical region was gently wounded with the sharp end of a scalpel. The resultant explants were then placed in an Agrobacterium suspension and add 1/1000 10% F68; the suspension was then placed under vacuum at 800-900-mbar for 5-30 min followed by sonication at 45 kHz for 30-60s with gentle shaking. The explants were inoculated for 2-3 hours with the Agrobacterium with 50-80 rpm shaking.
After inoculation in (3), the Agrobacterium suspension was removed, and the explants were then placed onto a piece of filter paper in a petri dish which prewetted by 0.5 ml co-cultivation media (MS basal salts and vitamins, MS iron, zeatin 1 mg/L, sucrose 10 g/L, glucose 5 g/L, MES 2 g/L, acetosyringone 20 mg/L, silver nitrate 0.5 mg/L) with the adaxial side up. One side of the filter paper was covered, and the petri dish was sealed with parafilm. Approximately 10~20 explants were placed per petri dish. The explant and Agrobacterium were co-cultured for 4 days in low-illumination condition: PAR (photosynthetically active radiation) 40 μmol m−2 s−1 with 16/8 light/dark condition. The plate containing explants was covered with a steel tray in an incubator (PERVICAL® Scientific Chambers, Perry, IA). These conditions were chosen to increase infection and prevent embryo deterioration. The explants were then co-cultured at 22° C. in the dark for 3-6 days in growth chamber.
After co-culture, the explants were transferred onto SFR1 medium for shoot regeneration (Gamborg B5 basal salts and B5 vitamins, MS Iron 200×, sucrose 20 g/L, MES 1 g/L, timentin 150 mg/L, carbenicillin 150 mg/L, agar 7.5 g/L, lipoic acid-50 mM, BAP 1 mg/L). The SFR1 medium also contained a selection agent (i.e., spectinomycin 50-150 mg/L). The explants were allowed to culture on SFR1 media in the dark at 25° C. for 3-6 days, and then grown under light (16/8 light/dark) at 25° C. for 9-14 days. FIGS. 6A-D show formation of the primary shoots with GFP expression.
Different concentrations of TDZ in the infection medium were tested to assess if TDZ concentration impacts transformation (Experiment alias: SF-52-SP-24545, SF-66-SP-24545, SF-81-SP-24545; variety: F75400). The process of transformation with explants from 1-day imbibed seeds was as described above. TDZ was added in the infection medium during the infection process for 2-4 hours. A TDZ concentration of 3-10 mg/L was used.

Setting [6] is: spectinomycin 100 mg/L in selection medium, SF23A, 89 explants.
[7] abbreviates: spectinomycin 200 mg/L in selection medium, SF23B, 67 explants.
Where [8] appears, read: spectinomycin 300 mg/L in selection medium, SF23C, 61 explants.
[9] abbreviates: spectinomycin 500 mg/L in selection medium, SF23D, 68 explants.
[10] abbreviates: spectinomycin 800 mg/L in selection medium, SF23E, 70 explants.
The mark [11] stands for this setting: TDZ 3 mg/L in infection medium, 65 explants.
Setting [12] is: TDZ 4 mg/L in infection medium, 49 explants.
[13] abbreviates: TDZ 8 mg/L in infection medium, 42 explants.
The mark [14] stands for this setting: TDZ 10 mg/L in infection medium, 37 explants.

As to `CN[C@@H]1[C@H](O)[C@H](NC)[C@H]2O[C@@]3(O)C(=O)C[C@@H](C)O[C@H]3O[C@@H]2[C@H]1O` [Spectinomycin, spectinomycin], the “Generation of resistant shoots” value in the experiment on sunflower explants [1] (all spectinomycin concentrations from 100 mg/L to 800 mg/L) was “generated resistant shoots”. For the same molecule, the “# of Resistant plants with GFP” value with sunflower explants [1] (setting [6]) is given as 10; with sunflower explants [1] (setting [7]) it was 6; in the experiment on sunflower explants [1] (setting [8]), 2; in the experiment on sunflower explants [1] (setting [9]), 2; in the experiment on sunflower explants [1] (setting [10]), 1. Besides, the “Rate of resistant plants with GFP (%)” value is listed as 11% in the experiment on sunflower explants [1] (setting [6]); 9% in the experiment with sunflower explants [1] (setting [7]); 3% in the experiment on sunflower explants [1] (setting [8]); 3% with sunflower explants [1] (setting [9]); 1% in the experiment with sunflower explants [1] (setting [10]). In addition, the “Rooting rate (%)” value in the experiment on sunflower explants [1] (setting [6]) is on record as 66%; in the experiment with sunflower explants [1] (setting [7]), 36%; in the experiment on sunflower explants [1] (setting [8]), 30%; with sunflower explants [1] (setting [9]), 18%; with sunflower explants [1] (setting [10]), 9%. Moreover, the “Shooting Rate (%)” value in the experiment with sunflower explants [1] (setting [6]) stood at 40%; in the experiment with sunflower explants [1] (setting [7]), 18%; with sunflower explants [1] (setting [8]) it was 16%; in the experiment with sunflower explants [1] (setting [9]), 10%; with sunflower explants [1] (setting [10]), 9%. The “transformation frequency (TF)” value with sunflower explants [2] worked out at 8.2%.

Consider `COC(=O)c1ccccc1CS(=O)(=O)NC(=O)Nc1nc(OC)cc(OC)n1` [bensulfuron-methyl], for which the “transformation frequency (TF)” value with sunflower explants [2] is 3.6%.

On to `c1ccc(CNc2ncnc3nc[nH]c23)cc1` [BAP, 6-benzylaminopurine], for which, in experiment [3], the “Shoot induction rate (%)” value was 2%. Also, in the experiment with sunflower explants [4], the No. resistant shoot is listed as 6, the “# of Resistant plants with GFP” value came out at 5, the “Rate of resistant plants with GFP (%)” value stood at 7% and the Resistant shoot rate was 8%.

Regarding `O=C(Nc1ccccc1)Nc1cnns1` [TDZ, 1-phenyl-3-(1,2,3-thiadiazol-5-yl)urea], in experiment [5] (setting [11]), the “# of TaqMan Positive Events” value turned out to be 1 and the TF stood at 1.5%. In experiment [5] (setting [12]), the “# of TaqMan Positive Events” value turned out to be 4 and the TF is reported as 8.2%. Moreover, in experiment [5] (setting [13]), the “# of TaqMan Positive Events” value is given as 3 and the TF stood at 7.1%. Moreover, in experiment [5] (setting [14]), the “# of TaqMan Positive Events” value is 1 and the TF came to 2.7%. In addition, the “Effect on shoot induction rate and transformation efficiency” value in experiment [5] (TDZ 3-10 mg/L in infection medium for 2-4 hours) was “significantly improve shoot induction rate and transformation efficiency”. Moreover, in the experiment with sunflower explants [4], the No. resistant shoot came out at 7, the “# of Resistant plants with GFP” value turned out to be 5, the “Rate of resistant plants with GFP (%)” value is given as 7% and the Resistant shoot rate is on record as 10%.
